{"source": "patent US20050282242A1", "about": "“Screening assays for antimicrobial agents” (priority 2004, published 2005)", "format_in_all_cases": "in vivo", "key": {"[1]": {"test_system": "S. aureus Smith mutant containing the L466S mutation in RpoB", "experiment": "Mouse septicemia model, S. aureus Smith RpoB L466S", "conditions": "1.1 × 10^7 CFU/mouse, three days", "description": "(§1) Antimicrobial compounds may also be screened in vivo using a mouse septicemia model. In one particular example, mice were inoculated with an S. aureus Smith strain (Weiss) encoding a mutated microbial polypeptide (e.g., a mutated RpoB). Compounds were administered either IV or orally 30 minutes following inoculation, and observations was continued for three days. Compounds that promoted the survival of inoculated mice were identified as being compounds that are effective against antibiotic-resistant forms of S. aureus.\n(§2) This was accounted for by the increased MIC against these mutant strains compared with the wild-type strain (MICs of 2 μg/ml and 0.004-0.008 μg/ml, respectively)."}, "[2]": {"test_system": "S. aureus Smith mutant containing the S486L mutation in RpoB", "experiment": "Mouse septicemia model, S. aureus Smith RpoB S486L", "conditions": "1.4 × 10^7 CFU/mouse, three days", "description": "as §1, §2"}, "[3]": {"test_system": "S. aureus Smith containing the RpoB H481Y alteration", "experiment": "Mouse septicemia model, S. aureus Smith RpoB H481Y", "conditions": "mouse, 1.1 × 10^7 CFU/mouse, three days", "description": "as §1, §2"}}, "data": [{"molecule": "O=C(O)c1cn(C2CC2)c2cc(N3CCNCC3)c(F)cc2c1=O", "note": "[Ciprofloxacin]", "values": [{"measurement": "Survival (n = 5)", "setting": "[1]; IV 0.6 mg/kg", "result": 1}, {"measurement": "Survival (n = 5)", "setting": "[1]; IV 2.0 mg/kg", "result": 4}, {"measurement": "Survival (n = 5)", "setting": "[1]; IV 6.0 mg/kg", "result": 5}, {"measurement": "Survival (n = 5)", "setting": "[2]; IV 0.6 mg/kg", "result": 1}, {"measurement": "Survival (n = 5)", "setting": "[2]; IV 2.0 mg/kg", "result": 3}, {"measurement": "Survival (n = 5)", "setting": "[2]; IV 6.0 mg/kg", "result": 5}, {"measurement": "Survival (n = 5)", "setting": "[3]; IV 0.6 mg/kg", "result": 2}, {"measurement": "Survival (n = 5)", "setting": "[3]; IV 2.0 mg/kg", "result": 5}, {"measurement": "Survival (n = 5)", "setting": "[3]; IV 6.0 mg/kg", "result": 4}]}]}
